Data on 23 compounds can be found in patent US8993565B2, “(6-oxo-1,6-dihydropyrimidin-2-yl)amide derivatives, preparation thereof and pharmaceutical use thereof as AKT(PKB) phosphorylation inhibitors” (Sanofi, priority 2009, dated 2015).

A word on the IC50: it is the concentration that gives 50% inhibition. One may read the melting point as the temperature, or range, at which the solid turns liquid.

In series [1] the test system is AKT protein phosphorylated on serine 473 (P-AKT-S473). Put plainly: Study of pAKT expression in PC3 human prostate carcinoma cells measured by the MSD Multi-spot Biomarker Detection technique (Test B). It is filed as cell-based. The settings on record: PC-3, inhibition of AKT phosphorylation (P-AKT-S473), MSD sandwich immunoassay, 1 to 2 h incubation, absolute IC50, mean of 2 experiments. Summed up:
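Lysate P-AKT-S473 quantified by MSD electrochemiluminescent sandwich immunoassay; inhibition vs DMSO and cell-free background, IC50 averaged over 2 experiments.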

For series [2], the system named is AKT protein phosphorylated on serine 473 (pAKT-S473). Put plainly: Study of pAKT expression in PC3 human prostate carcinoma cells measured by western blotting (Test A). It is filed as cell-based. The following applies: PC-3, inhibition of AKT phosphorylation (pAKT-S473), 1 to 2 hours incubation, absolute IC50, mean of two experiments. As to the method:
The inhibitory activity of the molecules on AKT phosphorylation is measured either by western blotting using the technique described below, or by the MSD Multi-spot Biomarker detection technique from Meso Scale Discovery also described below.
Study of pAKT Expression in PC3 Human Prostate Carcinoma Cells Measured by Western Blotting (Test A):
On day 2, the cells are incubated in the presence or absence of the test products for 1 to 2 hours at 37° C. in the presence of 5% CO2. The molecules, diluted in dimethyl sulphoxide (DMSO Sigma #D2650), are added from a 10-times concentrated stock solution, the final percentage of DMSO being 0.1%. The molecules are tested either at a single concentration of less than or equal to 10 μM, or at increasing concentrations in a range that can extend from less than 1 nM to 10 μM.
After this incubation, the cells are lysed for the preparation of the proteins.
The lysate is centrifuged for 10 min at 6000 rpm. 155 μl of supernatant are recovered. 150 μl are incubated for denaturation for 5 min at 95° C. in the presence of 4× NuPAGE LDS Sample Buffer diluted 4-fold (InVitrogen ref NP0007) and of 10× NuPAGE Sample Reducing Agent diluted 10-fold (InVitrogen ref NP0009). These samples are then frozen at −20° C.
The gel is then transferred on to an Invitrolon PVDF membrane (Invitrogen #LC2007) permeabilised beforehand and for a few seconds in ethanol (Ethanol Fischer Scientific #E/0600DF/15).
The transfer is carried out in a Biorad tank at 30 volts overnight or at 60 volts for 3 hours, in the presence of 20× NUPAGE Transfer Buffer diluted 20-fold (InVitrogen ref NP0006).
The membrane is then saturated in saturating solution composed of TBS (10× Tris Buffered Saline, Sigma #T5912, diluted 10-fold), 0.1% Tween (Sigma #P5927) and 3% BSA (Bovine Albumin Serum Fraction V, Sigma #A4503) for 6 h after overnight transfer or else for 1 h after transfer for a period of 3 h.
Two rinses for min in washing solution composed of TBS and 0.1% Tween 20 are carried out before hybridisation of the secondary antibodies.
The secondary antibodies are diluted 110000th for the rabbit anti-Mouse IgG HRP antibody (W402 Promega) and to 110000th for the goat anti-Rabbit IgG HRP antibody (W401 Promega) in saturating solution, and then shaken for 1 h at ambient temperature.
Two rinses for 30 min in washing solution are carried out and then a rinse for 5 min in H2O is carried out in order to eliminate the remaining Tween 20.
The luminescence is read with the FujiFilm device (Ray Test).
The FUJI device measures the total luminescence signal obtained (AU) for each band selected. It then subtracts the background noise (BG) proportional to the size of the band selected (Area), said background noise being calculated from a specific background noise band, with a view to obtaining the specific signal (AU-BG) for each band. The band obtained in the absence of product and in the presence of 0.1% DMSO is considered to be the 100% signal. The software calculates the % specific activity (Ratio) obtained for each band selected as a function of this 100% signal. The percentage inhibition is calculated for each concentration according to the formula (100%−Ratio).
Two independent experiments make it possible to calculate the mean of the percentages of inhibition obtained at a given concentration for the products tested only at one concentration.
Two independent experiments make it possible to calculate the mean of the IC50s.
A general note: In western blotting, separated proteins are transferred to a membrane and probed.

In turn, `O=C(Cc1nc(N2CCOCC2)cc(=O)[nH]1)Nc1cc(F)cc(F)c1` [Example 13, N-(3,5-difluorophenyl)-2-[4-(morpholin-4-yl)-6-oxo-1,6-dihydropyrimidin-2-yl]acetamide] displayed a melting point of more than 260 °C. The IC50 in series [1] is 71 nM.

For `O=C(Cc1nc(N2CCOCC2)cc(=O)[nH]1)Nc1ccc(F)c(OC(F)(F)F)c1` [Example 54, N-[4-fluoro-3-(trifluoromethoxy)phenyl]-2-[4-(morpholin-4-yl)-6-oxo-1,6-dihydropyrimidin-2-yl]acetamide], the IC50 in series [2] came to 807 nM; in series [1] it was 67 nM.

Consider `CCOc1cccc(NC(=O)Cc2nc(N3CCOCC3)cc(=O)[nH]2)c1` [Example 58, N-(3-ethoxyphenyl)-2-[4-(morpholin-4-yl)-6-oxo-1,6-dihydropyrimidin-2-yl]acetamide], for which the values for the IC50 in series [2] and in series [1] were 760 nM and 71 nM, respectively.

As to `Cn1c(CC(=O)Nc2ccc(F)c(Cl)c2)nc(N2CCOCC2)cc1=O` [Example 68, N-(3-chloro-4-fluorophenyl)-2-[1-methyl-4-(morpholin-4-yl)-6-oxo-1,6-dihydropyrimidin-2-yl]acetamide], the IC50 in series [2] turned out to be 202 nM; in series [1], 79 nM.

Turning to `CCn1c(CC(=O)Nc2ccc(F)cc2)nc(N2CCOCC2)cc1=O` [Example 70, 2-[1-ethyl-4-(morpholin-4-yl)-6-oxo-1,6-dihydropyrimidin-2-yl]-N-(4-fluorophenyl)acetamide], the melting point was found to be 238 °C. Further, the IC50 in series [1] turned out to be 195 nM.

For the compound `O=C(Cc1nc(N2CCOCC2)cc(=O)[nH]1)Nc1cccc2[nH]ccc12` [Example 71, N-(1 H-indol-4-yl)-2-[4-(morpholin-4-yl)-6-oxo-1,6-dihydropyrimidin-2-yl]acetamide], the IC50 in series [2] was found to be 5380 nM; in series [1] it was 120 nM.

As for `CC(C)C(C(=O)Nc1ccc(F)cc1)c1nc(N2CCOCC2)cc(=O)[nH]1` (stereo not shown) [Example 72, N-(4-fluorophenyl)-3-methyl-2-[4-(morpholin-4-yl)-6-oxo-1,6-dihydropyrimidin-2-yl]butanamide], the melting point came out at 266 °C. In addition, the midpoint of inhibition in series [1], the IC50, lay at 89 nM.

In turn, `O=C(Cc1nc(N2CCOCC2)cc(=O)[nH]1)Nc1cccc(OC(F)(F)C(F)F)c1` [Example 75, 2-[4-(morpholin-4-yl)-6-oxo-1,6-dihydropyrimidin-2-yl]-N-[3-(1,1,2,2-tetrafluoroethoxy)phenyl]acetamide] had a melting point of 229 °C. For the same compound, in series [1], the IC50 was 69 nM.

As for `Cn1c(CC(=O)Nc2cccc(C3CC3)c2)nc(N2CCOCC2)cc1=O` [Example 82, N-(3-cyclopropylphenyl)-2-[1-methyl-4-(morpholin-4-yl)-6-oxo-1,6-dihydropyrimidin-2-yl]acetamide], the melting point came to 216 °C. The compound also yielded an IC50 in series [1] of 133 nM.

Compound `Cn1c(CC(=O)Nc2ccc(F)c(C3CC3)c2)nc(N2CCOCC2)cc1=O` [Example 86, N-(3-cyclopropyl-4-fluorophenyl)-2-[1-methyl-4-(morpholin-4-yl)-6-oxo-1,6-dihydropyrimidin-2-yl]acetamide] registered a melting point of 245 °C. In addition, the IC50 in series [1] is 26 nM.

On to `Cn1c(CC(=O)N2CCc3c(F)cccc32)nc(N2CCOCC2)cc1=O` [Example 102, 2-[2-(4-fluoro-2,3-dihydro-1H-indol-1-yl)-2-oxoethyl]-3-methyl-6-(morpholin-4-yl)pyrimidin-4(3H)-one], for which the melting point turned out to be 244 °C. The same compound showed an IC50 in series [1] of 43 nM.

`Cn1c(CC(=O)N2CCc3c(Cl)cccc32)nc(N2CCOCC2)cc1=O` [Example 104, 2-[2-(4-chloro-2,3-dihydro-1H-indol-1-yl)-2-oxoethyl]-3-methyl-6-(morpholin-4-yl)pyrimidin-4(3H)-one] displayed a melting point of 235 °C. This compound had an IC50 in series [1] of 42 nM.

For `O=C(Cc1nc(N2CCOCC2)cc(=O)[nH]1)N1c2ccccc2CC1CO` (stereo not shown) [Example 106, 2-{2-[2-(hydroxymethyl)-2,3-dihydro-1 H-indol-1-yl]-2-oxoethyl}-6-(morpholin-4-yl)pyrimidin-4(3H)-one], the melting point turned out to be 200 °C. For the same compound, it took 27 nM to reach half-maximal inhibition in series [1] (IC50).

As for `COc1cccc2c1CCN2C(=O)Cc1nc(N2CCOCC2)cc(=O)n1C` [Example 110, 2-[2-(4-methoxy-2,3-dihydro-1H-indol-1-yl)-2-oxoethyl]-3-methyl-6-(morpholin-4-yl)pyrimidin-4(3H)-one], the melting point stood at 229 °C. Besides, the IC50 in series [1] was 278 nM.

`O=C(Cc1nc(N2CCOCC2)cc(=O)[nH]1)N1CCc2ccccc2C1` [Example 111, 2-[2-(3,4-dihydroisoquinolin-2(1H)-yl)-2-oxoethyl]-6-(morpholin-4-yl)pyrimidin-4(3H)-one] registered a melting point of 107.5 °C. This compound also gave an IC50 in series [1] of 301 nM.

For the compound `Cc1cccc2c1CCN2C(=O)Cc1nc(N2CCOCC2)cc(=O)n1C` [Example 114, 3-methyl-2-[2-(4-methyl-2,3-dihydro-1H-indol-1-yl)-2-oxoethyl]-6-(morpholin-4-yl)pyrimidin-4(3H)-one], the melting point is 239 °C. In series [1], 26 nM corresponded to half-maximal inhibition (IC50).

Compound `CN(C)CC1CN(C(=O)Cc2nc(N3CCOCC3)cc(=O)[nH]2)c2ccccc21` (stereo not shown) [Example 115, 2-[2-(3-dimethylaminomethyl-2,3-dihydroindol-1-yl)-2-oxoethyl]-6-morpholin-4-yl-3H-pyrimidin-4-one] came in with a melting point of 243 °C. For the same compound, the IC50 in series [1] came to 10 nM.

For `Cn1c(CC(=O)N2CCc3c(Br)cccc32)nc(N2CCOCC2)cc1=O` [Example 116, 2-[2-(4-bromo-2,3-dihydro-1 H-indol-1-yl)-2-oxoethyl]-3-methyl-6-(morpholin-4-yl)pyrimidin-4(3H)-one], the melting point is 226 °C. In series [1], this compound came in with an IC50 of 51 nM.

On to `CC1CN(C(=O)Cc2nc(N3CCOCC3)cc(=O)n2C)c2ccccc21` (stereo not shown) [Example 119, 3-methyl-2-[2-(3-methyl-2,3-dihydro-1H-indol-1-yl)-2-oxoethyl]-6-(morpholin-4-yl)pyrimidin-4(3H)-one], for which the melting point came to 225 °C. The IC50 in series [1] was determined as 194 nM.

Consider `COCC1Cc2ccccc2N1C(=O)Cc1nc(N2CCOCC2)cc(=O)[nH]1` (stereo not shown) [Example 120, 2-{2-[2-(methoxymethyl)-2,3-dihydro-1H-indol-1-yl]-2-oxoethyl}-6-(morpholin-4-yl)pyrimidin-4(3H)-one], for which the melting point lay within 112 to 115 °C. The same compound returned an IC50 in series [1] of 11 nM.

Compound `CCOc1cccc2c1CCN2C(=O)Cc1nc(N2CCOCC2)cc(=O)[nH]1` [Example 121, 2-[2-(4-ethoxy-2,3-dihydro-1H-indol-1-yl)-2-oxoethyl]-6-(morpholin-4-yl)pyrimidin-4(3H)-one] had a melting point of 257 °C. The same compound displayed an IC50 in series [1] of 44 nM.

In turn, `CC1Cc2ccccc2N1C(=O)Cc1nc(N2CCOCC2)cc(=O)n1C` (stereo not shown) [Example 123, 3-methyl-2-[2-(2-methyl-2,3-dihydro-1H-indol-1-yl)-2-oxoethyl]-6-(morpholin-4-yl)pyrimidin-4(3H)-one] gave a melting point of 148 °C. This compound also returned an IC50 in series [1] of 77 nM.

In turn, `Cn1c(CC(=O)N2CCc3ccc(F)cc32)nc(N2CCOCC2)cc1=O` [Example 124, 2-[2-(6-fluoro-2,3-dihydro-1H-indol-1-yl)-2-oxoethyl]-3-methyl-6-(morpholin-4-yl)pyrimidin-4(3H)-one] returned a melting point of 223 °C. In addition, the IC50 in series [1] came to 124 nM.
